Experimental data: ChEMBL document CHEMBL1136447, “Biological investigation and structure-activity relationship studies on azadirone from Azadirachta indica A. Juss” (2003)

Experiments:
[1] = tested on: U-251; assay: In vitro cytotoxic activity against CNS(U251) cell line at a concentration of 10e-5 M; assay type: functional, Homo sapiens
[2] = tested on: SK-OV-3; assay: In vitro cytotoxic activity against Ovarian (SK-OV3) cell line at a concentration of 10e-5 M; assay type: functional, Homo sapiens
[3] = tested on: MCF7; assay: In vitro cytotoxic activity against breast (MCF-7/ADR) cell line at a concentration of 10e-5 M; assay type: functional, Homo sapiens
[4] = tested on: SW-620; assay: In vitro cytotoxic activity against colon (SW620) cell line at a concentration of 10e-5 M; assay type: functional, Homo sapiens
[5] = tested on: A498; assay: In vitro cytotoxic activity against renal (A498) cell line at a concentration of 10e-5 M; assay type: functional, Homo sapiens
[6] = tested on: DU-145; assay: In vitro cytotoxic activity against prostate (DU145) cell line at a concentration of 10e-5 M; assay type: functional, Homo sapiens
[7] = tested on: NCI-H522; assay: In vitro cytotoxicity against H522 (human adenocarcinoma) cell line at a concentration of 10e-5 M.
[8] = tested on: M14; assay: In vitro cytotoxic activity against Melanoma (M14) cell line at a concentration of 10e-5 M; assay type: functional, Homo sapiens
[9] = tested on: U-251; assay: In vitro cytotoxic activity against CNS(U251) cell line; assay type: functional; conditions: Homo sapiens
[10] = tested on: M14; assay: In vitro cytotoxic activity against Melanoma (M14) cell line; assay type: functional; conditions: Homo sapiens
[11] = tested on: SK-OV-3; assay: In vitro cytotoxic activity against Ovarian (SK-OV3) cell line; assay type: functional; conditions: Homo sapiens
[12] = tested on: A498; assay: In vitro cytotoxic activity against renal (A498) cell line; assay type: functional; conditions: Homo sapiens
[13] = tested on: MCF7; assay: In vitro cytotoxic activity against breast (MCF-7/ADR) cell line; assay type: functional; conditions: Homo sapiens
[14] = tested on: DU-145; assay: In vitro cytotoxic activity against prostate (DU145) cell line; assay type: functional; conditions: Homo sapiens
[15] = tested on: NCI-H522; assay: In vitro cytotoxic activity against lung (H522) cell line; conditions: Homo sapiens
[16] = tested on: SW-620; assay: In vitro cytotoxic activity against colon (SW620) cell line; assay type: functional; conditions: Homo sapiens

Compound	Growth [1]	Growth [2]	Growth [3]	Growth [4]	Growth [5]	Growth [6]	Growth [7]	Growth [8]	GI50 [9]	GI50 [10]	GI50 [11]	GI50 [12]	GI50 [13]	GI50 [14]	GI50 [15]	GI50 [16]
CCOC1=C[C@@]2(C)C(C[C@@H](O)[C@@]3(C)C4=CC[C@@H](c5ccoc5)[C@]4(C)CCC23)C(C)(C)C1=O (stereo partly specified)	54%	67%	17%	36%	52%	84%	57%	67%	–	–	–	–	–	–	–	–
CCCC(=O)O[C@@H]1CC2C(C)(C)C(=O)C=C[C@]2(C)C2CC[C@]3(C)C(=CC[C@H]3c3ccoc3)[C@@]21C (stereo partly specified)	15%	90%	57%	49%	43%	68%	40%	59%	–	–	–	–	–	–	–	–
CCO[C@@H]1CC2C(C)(C)C(=O)C=C[C@]2(C)C2CC[C@]3(C)C(=CC[C@H]3c3ccoc3)[C@@]21C (stereo partly specified)	63%	100%	66%	81%	45%	76%	69%	61%	–	–	–	–	–	–	–	–
CC1(C)C(O)C=C[C@@]2(C)C1C[C@@H](O)[C@@]1(C)C3=CC[C@@H](c4ccoc4)[C@]3(C)CCC21 (stereo partly specified)	100%	100%	76%	79.6%	88.2%	100%	97%	100%	–	–	–	–	–	–	–	–
CC1(C)C(=O)C=C[C@@]2(C)C1C[C@@H](OC(=O)Nc1ccccc1)[C@@]1(C)C3=CC[C@@H](c4ccoc4)[C@]3(C)CCC21 (stereo partly specified)	71%	100%	55%	64%	100%	76%	51%	74%	–	–	–	–	–	–	–	–
CC1(C)C(=O)C=C[C@@]2(C)C1C[C@@H](OC(=O)C(F)(F)F)[C@@]1(C)C3=CC[C@@H](c4ccoc4)[C@]3(C)CCC21 (stereo partly specified)	52%	49%	54%	60%	59%	77%	75%	86%	–	–	–	–	–	–	–	–
CCOC1=C[C@@]2(C)C(C[C@@H](OC(C)=O)[C@@]3(C)C4=CC[C@@H](c5ccoc5)[C@]4(C)CCC23)C(C)(C)C1=O (stereo partly specified)	70%	61%	51%	65%	33%	35%	52%	40%	5 µM	20 µM	40 µM	40 µM	8 µM	50 µM	30 µM	5 µM
CCN(CC)CCO/N=C1\C=C[C@@]2(C)C(C[C@@H](OC(C)=O)[C@@]3(C)C4=CC[C@@H](c5ccoc5)[C@]4(C)CCC23)C1(C)C (stereo partly specified)	5%	7%	28%	23%	7%	46%	26%	35%	4 µM	4 µM	3 µM	8 µM	6 µM	7 µM	3 µM	4 µM
CC(=O)O[C@@H]1CC2C(C)(C)C(=O)[C@@H]3O[C@@H]3[C@]2(C)C2CC[C@]3(C)C(=CC[C@H]3c3ccoc3)[C@@]21C (stereo partly specified)	100%	100%	59.3%	100%	42.7%	63.1%	69.6%	100%	–	–	–	–	–	–	–	–
CC(=O)O[C@@H]1CC2C(C)(C)C(=O)C=C[C@]2(C)C2CC[C@]3(C)C(=CC[C@H]3C3=CC(=O)OC3O)[C@@]21C.CC(=O)O[C@@H]1CC2C(C)(C)C(=O)C=C[C@]2(C)C2CC[C@]3(C)C(=CC[C@H]3C3=CC(O)OC3=O)[C@@]21C (stereo partly specified)	44.3%	41.6%	-13%	100%	70.3%	24.8%	73.3%	71.3%	–	–	–	–	–	–	–	–
CC(C)C(=O)O[C@@H]1CC2C(C)(C)C(=O)C=C[C@]2(C)C2CC[C@]3(C)C(=CC[C@H]3c3ccoc3)[C@@]21C (stereo partly specified)	40%	84%	57%	61%	74%	69%	54%	95%	–	–	–	–	–	–	–	–
COc1ccc(/C=C\C(=O)O[C@@H]2CC3C(C)(C)C(=O)C=C[C@]3(C)C3CC[C@]4(C)C(=CC[C@H]4c4ccoc4)[C@@]32C)cc1OC (stereo partly specified)	77%	85%	66%	62%	5%	25%	63%	39%	–	–	–	–	–	–	–	–
CC(=O)O[C@@H]1CC2C(C)(C)/C(=N/O)C=C[C@]2(C)C2CC[C@]3(C)C(=CC[C@H]3c3ccoc3)[C@@]21C (stereo partly specified)	5%	87%	55%	47%	20%	56%	44%	38%	–	–	–	–	–	–	–	–
CC(=O)OC1C=C[C@@]2(C)C(C[C@@H](OC(C)=O)[C@@]3(C)C4=CC[C@@H](c5ccoc5)[C@]4(C)CCC23)C1(C)C (stereo partly specified)	46%	19.3%	78%	59%	69%	74%	86%	76%	–	–	–	–	–	–	–	–
CC1(C)C(=O)C=C[C@@]2(C)C1C[C@@H](O)[C@@]1(C)C3=CC[C@@H](c4ccoc4)[C@]3(C)CCC21 (stereo partly specified)	46%	64%	36%	100%	65%	46%	100%	15.8%	3.5 µM	9 µM	> 100 µM	> 100 µM	5 µM	9.5 µM	> 100 µM	> 100 µM
COC1=C[C@@]2(C)C(C[C@@H](OC(C)=O)[C@@]3(C)C4=CC[C@@H](c5ccoc5)[C@]4(C)CCC23)C(C)(C)C1=O (stereo partly specified)	63%	38%	58%	35%	50%	47%	82%	67%	20 µM	40 µM	35 µM	40 µM	95 µM	40 µM	40 µM	20 µM
CCC(=O)O[C@@H]1CC2C(C)(C)C(=O)C=C[C@]2(C)C2CC[C@]3(C)C(=CC[C@H]3c3ccoc3)[C@@]21C (stereo partly specified)	40%	61%	29%	51%	67%	67%	48%	39%	–	–	–	–	–	–	–	–
CC1(C)C(=O)C=C[C@@]2(C)C1C[C@@H](OC(=O)/C=C\c1ccccc1)[C@@]1(C)C3=CC[C@@H](c4ccoc4)[C@]3(C)CCC21 (stereo partly specified)	41%	86%	55%	86%	48%	81%	69%	41%	–	–	–	–	–	–	–	–
